Source: US12594255B2, “Lipids with odd number of carbon atoms and their use as pharmaceutical composition or nutritional supplement” (SunRegen Healthcare AG, priority 2016, dated 2026)
“And” between values parts separate entries of the source, which are not always exact repeats. Equal values may be shown once.

Assays:
Format in all cases: cell-based
[1] = system: mouse primary cortical neurons challenged with Aβ1-42 oligomers (AβO); experiment: AβO-induced neurotoxicity, 48-h pre-incubation with test item, MTT assay; details: for Neuroprotection (0.01 μM) / Neuroprotection (0.1 μM): added 48 hours before 1 μM AβO; for neuroprotective effect: 1 μM, 48-h preincubation before 1 μM AβO
Method: Mouse primary cortical neurons were pre-incubated for 48 h with vehicle, 0.05 μM DHA (used as positive control) or different concentrations of Compound C. Then, cortical neurons were treated for 24 h with vehicle (FIG. 1 left) or 1 μM AβO ([…]) and cell viability was determined using the MTT assay (n=3 determinations per condition, 1 independent experiment), Data are represented as % of vehicle control (Mean*SD). […]
(§1) Cortical neurons from embryonic day 16-17 are prepared from C57BL6/J mouse fetuses. In brief, dissociated cortical cells were plated (50.000 cells/well) in 48-well plates pre-coated with 1.5 μg/mL polyornithine (Sigma). Cells were cultured in a chemically defined Dulbecco's modified eagle's/F12 medium free of serum and supplemented with hormones, proteins and salts. Cultures were kept at 35° C. in a humidified 6% CO2 atmosphere. Mouse cortical neurons were exposed for 24 h to 1.0 μM AβO after a 48-h pre-incubation with vehicle or different concentrations of Compound C. The AβO-induced neurotoxicity was evaluated using the MTT assay.
All treatments were done in triplicates in 48-well plates. Cells were incubated with vehicle or 1 μM AβO in the absence or presence of different lipids at the indicated final concentrations) added at 48 hours before ADO. Cells were incubated with AβO for 24 h in a final volume of 140 μL per well.
For positive controls, cells are treated similarly (48 hours before AβO) in the presence of 0.05 μM DHA.
Following AβO-treatment, cell viability was measured using the MTT assay. Briefly, cells were incubated at 35° C. for 1 h with MTT (Sigma, Cat #M2128-10G. Lot #MKBH7489V). For that purpose, 14 μL of 5 mg/mL MITT (solubilized in PBS) were added in each well. After incubation, medium was removed and cells were lyzed with 150 μL DMSO for 10 minutes and protected from light. After complete solubilization of formazan, absorbance at 570 nm was recorded.
as §1, with “cells are” for “cells were”, “Cells are” for “Cells were”, “Cultures are” for “Cultures were”, “of herb B extracts.” for “of Compound C.”, “assay. […]” for “assay.”

[2] = system: mouse primary cortical neurons treated with 0.25 mM H2O2; experiment: H2O2-induced neurotoxicity, test item added 48 hours before or 3 hours after H2O2, MTT assay
[3] = system: mouse primary cortical neurons challenged with Aβ1-42 oligomers (AβO); experiment: AβO-induced neurotoxicity, test item added concomitantly (T0) or 3 h (T3) or 6 h (T6) after AβO, MTT assay; details: 0.1 μM HNG added 3 or 6 h after AβO
Method: Mouse primary cortical neurons were treated at 0 h (T0) with vehicle or 1 μM AβO, Different concentrations of Compound C or HNG (0.1 μM, used as positive control) were added concomitantly to AβO at 0 h (T0)), 3 h (T3) or 6 h (T6) after AβO. Then, cortical neurons were incubated for 24 h and cell viability was determined using the MTT assay (n=3 determinations per condition, 1 independent experiment). Data are represented as % of vehicle control (Mean±SD). […]
The aim of this study is to determine whether Compound C might present neuroprotective, anti-apoptotic and neuro-rescuing effects in in vitro AβO induced neuron death models. For that purpose, the neuro-protective effects of compound C at six concentrations were investigated using mouse primary cortical neurons challenged with Aβ1-42 oligomers (AβO) Compounds were added at different time points (concomitantly T0 with AβO and T3, or T6 after AβO) with the aim to identify rescuing effects or anti-apoptotic effects.
Cortical neurons from embryonic day 16-17 are prepared from C57Bl6/J mouse fetuses, as described in Example I-1.
Mouse cortical neurons were exposed for 24 h to 1.0 μM AβO. The AβO-induced neurotoxicity was evaluated using the MTT assay. […] (FIG. 4)
The percentage of neuroprotection and anti-apoptosis effects was defined as; (neuron viability of compound C group−neuron viability of toxin treated group)/(100−neuron viability of toxin treated group)×100%. The % of neuroprotection and anti-apoptotic effects of compound C at 1000 nM is 88.7%, 52.0%, 22.3%, at T0, T3, or T6, respectively. (FIG. 4) […]

[4] = system: human iPSC-derived neurons challenged with Aβ1-42 oligomers (AβO); experiment: AβO-induced neuronal death in human iPSC-derived neurons, NSE ELISA assay
Method: iPSCs were treated at 0 h (T0) with vehicle or 1 μM AβO. Different concentrations of Compound C or 0.1 μM HNG (used as positive control) were added concomitantly to AβO at 0 h (T0), 3 h (T3) or 6 h (T6) after AβO. Then, were incubated for 24 h and cell viability was determined using the NSE ELISA assay (n=6 determinations per condition, 1 independent experiment), Data are represented as % of vehicle control (Mean±SD). […]
To determine whether compound C might rescue neuronal death in human iPSC-derived neurons challenged with Aβ1-42 oligomers (AβO). In this cellular model, AβO induce a dramatic neuronal death that could be monitored by the level of neuronal specific enolase (NSE) using a specific ELISA assay. Compound C will be added at different time points (concomitantly and after AMBO) with the aim to identify rescuing effects.
Cells (HIP-Neuronal progenitors, GlobalStem, Cat #GSC-4312, Lot #20010260) are plated in 96-well plates at a density of 60.000 cells per well and culture. Before experiments, cells are matured for five weeks and kept at 37° C. in a humidified 5% CO2 atmosphere.
Cells are incubated with vehicle or 1 μM AβO in the absence or presence of different concentrations (i.e. 10, 100, 1000 and 10000 nM) of Compound C added concomitantly to AβO (T0), 3 h after AβO (T3), or 6 h after AβO (T6). Cells are incubated for 24 h in a final volume of 100 μL per well. For positive control, cells are treated similarly in the presence of 0.1 μM HNG (i.e. S14G variant of humanin peptide). In addition, neuronal loss is monitored using the detection of neuronal specific enolase (NSE) by ELISA assay according to supplier's recommendations (CloneCloud, Cat #SEA537Hu). A total of three data points per experimental condition will be generated here. […]

[5] = system: mouse primary cortical neurons; experiment: Axonal growth (MAP2 immunolabelling, axonal length); details: 60 nM sAPPα; vehicle control 165.96±90.18 μm
Method: Mouse primary cortical neurons were pre-incubated for 48 h with vehicle, 60 nM sAPPα (used as positive control) or different concentrations of Compound C. Then, cortical neurons were treated for 24 h with vehicle. Data are represented as % of vehicle control (Mean±SD).
Cortical neurons from embryonic day 16-17 are prepared from C57Bl6/J mouse fetuses, as described in Example I-1. After 96-h incubation, axonal length is recorded. Briefly, cells were washed with ice-cold PBS and fixed with cold methanol. Following fixation, cells are immunolabelled using a specific antibody detecting total MAP2 protein. Antibodies to MAP2 are excellent markers on neuronal cells, their axons and neuronal dendrites. For quantification of axonal length, six independent images of labelled cells are captured using an inverted microscope. Pictures of cells are analyzed using Neuron-J software and axonal length is recorded manually. A minimum of 100 independent neurons are treated. The data are expressed as mean axonal length (expressed in μm) (Mean±SD). Statistical differences between vehicle-treated cells and cells treated with compounds are determined using a t-test.

Molecule | Neuroprotection (0.01 μM) [1] | Neuroprotection (0.1 μM) [1] | neuroprotective effect [1] | other results
CC/C=C\C/C=C\C/C=C\C/C=C\C/C=C\C/C=C\CCC(=O)O [DHA, Docosahexaenoic acid, reference compound] | – | – | – | remaining cell viability ([1]; 0.05 μM DHA, 48 h pre-incubation, then 1 μM AβO 24 h): 82.0±2.6 % of control and 90.9±3.1 % of control
Cc1c(C)c2c(c(C)c1O)CCC(C)(C(=O)O)O2 (stereo not shown) [Trolox] | – | – | – | inhibition of H2O2-induced cell death ([2]; 1 mM Trolox added 48 h before 0.25 mM H2O2): partially inhibited cell death induced by H2O2; inhibition of H2O2-induced cell death ([2]; 1 mM Trolox added at T3 after 0.25 mM H2O2): partially inhibited cell death induced by H2O2
CCCCCCCCCCCCCCCCC(=O)O [GG07, Heptadecanoic acid] | 27.4% | 21.4% | lost neuroprotective effect | –
CCCCCCCCCCCCCCCCCCC(=O)O [GG09, Nonadecanoic acid] | 31.2% | 25.9% | lost neuroprotective effect | –
CCCCCCCCCCCCCCC(=O)O [GG05, Pentadecanoic acid] | 21.9% | 14.0% | lost neuroprotective effect | –
HNG: S14G variant of humanin peptide, positive control, well-known antiapoptotic peptide (MAPRGFSCLLLLTGEIDLPVKRRA; UniProt Q8IVG9 1-24, looked up, variant S14G) [reference compound] | – | – | – | prevention of AβO-induced cell death [3]: did not prevent cell death; prevention of AβO-induced cell death ([4]; 0.1 μM HNG added 3 or 6 h after AβO): did not prevent cell death; neuron viability ([4]; 0.1 μM HNG added at T0 with 1 μM AβO, 24 h): 85.3±15.6 % of control and 85.3±5.6 % of control
sAPPα: Secreted amyloid precursor protein-α, positive control [reference compound] | – | – | – | neuronal axon outgrowth (mean axonal length) [5]: 264.63±157.51 μm
